# Data taken from ChEMBL document CHEMBL6134832, “Expanding the utilization of binding pockets proves to be effective for noncovalent small molecule inhibitors against SARS-CoV-2 Mpro” (Eur J Med Chem, 2025).
# Calls of active or inactive are those of the source. No cut-off for these calls is given here.
# Legend:
# Format in all cases: functional, organism-based
# [1] = system: SARS-CoV-2; assay: Antiviral activity against SARS-CoV-2 omicron BA.5 variant infected in po dosed K18-hACE2 transgenic mouse model assessed as reduction in viral RNA loads in lung pretreated for 2 hrs followed by viral infection and measured on 2 dpi; conditions: Severe acute respiratory syndrome coronavirus 2, time 50.0 hrs
# [2] = system: SARS-CoV-2; assay: Antiviral activity against SARS-CoV-2 omicron BA.5 variant infected in K18-hACE2 transgenic mouse model assessed as reduction in viral titers in lung at 30 mg/kg, po pretreated for 2 hrs followed by viral infection and measured on 2 dpi; conditions: Severe acute respiratory syndrome coronavirus 2, time 50.0 hrs
# [3] = system: SARS-CoV-2; assay: Antiviral activity against SARS-CoV-2 omicron BA.5 variant infected in K18-hACE2 transgenic mouse model assessed as reduction in viral RNA loads in lung at 30 mg/kg, po pretreated for 2 hrs followed by viral infection and measured on 2 dpi; conditions: Severe acute respiratory syndrome coronavirus 2, time 50.0 hrs
# [4] = system: SARS-CoV-2; assay: Antiviral activity against SARS-CoV-2 omicron BA.5 variant infected in K18-hACE2 transgenic mouse model assessed as inflammatory cell infiltration in lung at 40 mg/kg, po pretreated for 2 hrs followed by viral infection and measured on 2 dpi; conditions: Severe acute respiratory syndrome coronavirus 2, time 50.0 hrs
# [5] = system: SARS-CoV-2; assay: Antiviral activity against SARS-CoV-2 omicron BA.5 variant infected in K18-hACE2 transgenic mouse model assessed as septal thickening in lung at 40 mg/kg, po pretreated for 2 hrs followed by viral infection and measured on 2 dpi; conditions: Severe acute respiratory syndrome coronavirus 2, time 50.0 hrs
# [6] = system: SARS-CoV-2; assay: Antiviral activity against SARS-CoV-2 omicron BA.5 variant infected in K18-hACE2 transgenic mouse model assessed as reduction in degree of damage at 15 to 30 mg/kg, po pretreated for 2 hrs followed by viral infection and measured on 2 dpi; conditions: Severe acute respiratory syndrome coronavirus 2, dose 15-30 mg/kg, time 50.0 hrs
# [7] = system: SARS-CoV-2; assay: Antiviral activity against SARS-CoV-2 omicron BA.5 variant infected in K18-hACE2 transgenic mouse model assessed as septal thickening in lung at 90 mg/kg, po pretreated for 2 hrs followed by viral infection and measured on 2 dpi; conditions: Severe acute respiratory syndrome coronavirus 2, time 50.0 hrs
# [8] = system: SARS-CoV-2; assay: Antiviral activity against SARS-CoV-2 omicron BA.5 variant infected in K18-hACE2 transgenic mouse model assessed as reduction in viral titers in lung at 15 to 90 mg/kg, po pretreated for 2 hrs followed by viral infection and measured on 2 dpi; conditions: Severe acute respiratory syndrome coronavirus 2, dose 15-90 mg/kg, time 50.0 hrs
# [9] = system: SARS-CoV-2; assay: Antiviral activity against SARS-CoV-2 omicron BA.5 variant infected in K18-hACE2 transgenic mouse model assessed as inflammatory cell infiltration in lung at 90 mg/kg, po pretreated for 2 hrs followed by viral infection and measured on 2 dpi; conditions: Severe acute respiratory syndrome coronavirus 2, time 50.0 hrs
# [10] = system: SARS-CoV-2; assay: Antiviral activity against SARS-CoV-2 omicron BA.5 variant infected in K18-hACE2 transgenic mouse model assessed as reduction in disease severity at 15 to 30 mg/kg, po pretreated for 2 hrs followed by viral infection and measured on 2 dpi; conditions: Severe acute respiratory syndrome coronavirus 2, dose 15-30 mg/kg, time 50.0 hrs
# [11] = system: SARS-CoV-2; assay: Antiviral activity against SARS-CoV-2 omicron BA.5 variant infected in K18-hACE2 transgenic mouse model assessed as inflammatory cell infiltration in lung at 40 to 80 mg/kg, po pretreated for 2 hrs followed by viral infection and measured on 2 dpi; conditions: Severe acute respiratory syndrome coronavirus 2, dose 40-80 mg/kg, time 50.0 hrs
# [12] = system: SARS-CoV-2; assay: Antiviral activity against SARS-CoV-2 omicron BA.5 variant infected in K18-hACE2 transgenic mouse model assessed as reduction in disease severity at 20 mg/kg, po pretreated for 2 hrs followed by viral infection and measured on 2 dpi; conditions: Severe acute respiratory syndrome coronavirus 2, time 50.0 hrs
# [13] = system: SARS-CoV-2; assay: Antiviral activity against SARS-CoV-2 omicron BA.5 variant infected in K18-hACE2 transgenic mouse model assessed as septal thickening in lung at 40 to 80 mg/kg, po pretreated for 2 hrs followed by viral infection and measured on 2 dpi; conditions: Severe acute respiratory syndrome coronavirus 2, dose 40-80 mg/kg, time 50.0 hrs
# [14] = system: SARS-CoV-2; assay: Antiviral activity against SARS-CoV-2 omicron BA.5 variant infected in K18-hACE2 transgenic mouse model assessed as reduction in degree of damage at 20 mg/kg, po pretreated for 2 hrs followed by viral infection and measured on 2 dpi; conditions: Severe acute respiratory syndrome coronavirus 2, time 50.0 hrs
# [15] = system: SARS-CoV-2; assay: Antiviral activity against SARS-CoV-2 omicron BA.5 variant infected in K18-hACE2 transgenic mouse model assessed as reduction in viral RNA loads in lung at 80 mg/kg, po pretreated for 2 hrs followed by viral infection and measured on 2 dpi; conditions: Severe acute respiratory syndrome coronavirus 2, time 50.0 hrs
# [16] = system: SARS-CoV-2; assay: Antiviral activity against SARS-CoV-2 omicron BA.5 variant infected in K18-hACE2 transgenic mouse model assessed as reduction in viral titers in lung at 20 to 80 mg/kg, po pretreated for 2 hrs followed by viral infection and measured on 2 dpi; conditions: Severe acute respiratory syndrome coronavirus 2, dose 20-80 mg/kg, time 50.0 hrs
SMILES,Activity [1],Activity [2],Activity [3],Activity [4],Activity [5],Activity [6],Activity [7],Activity [8],Activity [9],Activity [10],Activity [11],Activity [12],Activity [13],Activity [14],Activity [15],Activity [16]
Cn1cnc(Cn2c(=O)[nH]/c(=N\c3cc4cn(C)nc4cc3Cl)n(Cc3cc(F)c(F)cc3F)c2=O)n1,Dose-dependent-effect,Active,Active,Mild_effect,Active,–,–,–,–,–,–,–,–,–,–,–
Cc1ccc(C#N)cc1Cn1c(=O)n(-c2cncc(SC3CC3)c2)c(=O)[nH]/c1=N\c1cc2cn(C)nc2cc1Cl,Dose-dependent-effect,–,–,–,–,Active,Active,Active,Mild_effect,Active,–,–,–,–,–,–
Cn1cc2cc(/N=c3\[nH]c(=O)n(-c4cccnc4)c(=O)n3Cc3cc(F)c(F)cc3F)c(Cl)cc2n1,Dose-dependent-effect,–,–,–,–,–,–,–,–,–,Mild_effect,Active,Active,Active,Active,Active
